Measurements published in patent US20070207544A1, “STROMA-FREE, SERUM-FREE, AND CHEMICALLY DEFINED MEDIUM AND METHOD FOR EX VIVO MONONUCLEAR CELL EXPANSION USING THE SAME” (FOOD INDUSTRY RESEARCH & DEVELOPMENT INSTITUTE, priority 2005, published 2007).

Columns and labels:
white blood cells (WBCs) = experiment: Ex vivo expansion of UCB mononuclear cells: WBC growth (cell density); type: cell-based, human; details: for effect of serum substitute on WBC growth: sign of coefficient in Eq. (2), IMDM + seven cytokines; for effect of cytokine on WBC growth: sign of coefficient in Eq. (4), IMDM + BIT
Method: (§1) The term UCB was harvested with a standard 250-ml blood bag (Terumo, Shibuya-ku, Tokyo, Japan) with the informed consent and processed within 24 hrs. Buffy coat cells were obtained from UCB by centrifugation (700×g, 20 mins), and were diluted with an equal volume of wash buffer (Dulbecco's phosphate buffered saline, D-PBS, containing 2 mM EDTA, Sigma, St. Louis, Mo.). Then the cells were layered onto Ficoll-Paque solution (ρ=1.077 g/ml, Amersham Biosciences, Uppsala, Sweden) and centrifuged to deplete red blood cells, platelets and plasma (700×g, 40 mins). MNCs were collected, and washed with D-PBS twice. Recovery rate, viability, percentage of CD34^+ fraction, colony-forming cells (CFCs), and long-term culture-initiating cells (LTC-ICs) were determined as day 0 for control. For expansion, MNC were seeded at a concentration of 5×10^5 cells/ml in 24-well plates with variable serum substitutes and cytokines according to experiment design (all experiments were repeated at least six times).
(§2) Two-level factorial design followed the method of steepest ascent was carried out to find the optimal concentrations of serum substitutes and cytokines for CD34^+ cells expansion. Fractional and full factorial design data were regressed by SPSS software to obtain the first order polynomial. Its statistic significance was determined by an F-test and the significance of the regression coefficients was analyzed by a t-test. The polynomial takes the form of White blood cells (WBCs)/ml or CD34^+ cells/ml=α0+αixi (1)
(§3) As has been extensively reviewed [Sandstrom C E, et al. Biotechnol Bioeng. 1994; 43:706-733; Mobest D, et al. Biotechnol Bioeng. 1998; 60:341-347; Bruyn C D, et al. Cytotherapy. 2003; 5:153-160] and based on the inventors' previous experience [Lebkowski J S, et al. Stem Cells. 1995; 13:607-612; Audet J, et al. Biotechnol Bioeng. 2002; 80:393-404; Yao C L, et al. Enzyme Micro Technol. 2003; 33:343-352], four kinds of compounds that are frequently used as serum substitutes were selected—bovine serum albumin (BSA), insulin, transferring (TF), and 2-mercaptoethanol (2-ME). The 2^4 full factorial design was adopted to determine which serum substitutes were required for CD34^+ cell expansion in the MNC culture system. The 2^4 full factorial design could efficiently test four compounds with 16 trials and provide completely degrees of freedom to obtain the coefficients. […] 2003; 33:343-352]; the initial cell density was 5×10^5 MNCs/ml and the cells were analyzed after 7-day culture.
(§4) The 2^10-6 fractional factorial design (16 runs simultaneously) was adopted to identify which cytokines could help CD34^+ cell expansion in the MNC culture system. This design could efficiently test ten compounds with 16 trials and provide sufficient degrees of freedom to obtain the coefficients.

CD34^+ cells = experiment: Ex vivo expansion of UCB mononuclear cells: CD34^+ cell growth by flow cytometry; type: cell-based, human; details: for effect of serum substitute on CD34^+ cell growth: sign of coefficient in Eq. (3), IMDM + seven cytokines
Method: as §1, §2, §3, §4

Compound | effect of serum substitute on WBC growth (white blood cells (WBCs)) | effect of serum substitute on CD34^+ cell growth (CD34^+ cells) | effect of cytokine on WBC growth (white blood cells (WBCs)) | effect of cytokine on CD34^+ cell growth (CD34^+ cells; sign of coefficient in Eq. (5), IMDM + BIT)
OCCS [2-ME, 2-mercaptoethanol, reference compound] | inhibit | inhibit | – | –
HGF: recombinant human hepatocyte growth factor; x10 in Eq. (4), (5) | – | – | inhibit | –
IL-6: recombinant human interleukin-6; x5 in Eq. (4), (5) | – | – | inhibit | positive effect
TF: transferrin, serum substitute; x3 in Eq. (2), (3) | enhance | enhance | – | –
insulin: insulin, serum substitute; x2 in Eq. (2), (3) | enhance | enhance | – | –
